According to ChEMBL document CHEMBL4014333, “Discovery of Small Molecules for Repressing Cap-Independent Translation of Human Vascular Endothelial Growth Factor (hVEGF) as Novel Antitumor Agents” (J Med Chem, 2017):
Activity calls are given as the source filed them. The rule behind the calls is not given here.

Assays:
[1] = species on record: Homo sapiens; assay: Binding affinity to internal ribosome entry site A RNA G-quadruplex region of VEGF-A protein in human MDA-MB-231 cells assessed as inhibition of VEGF-A protein induced cell migration at 0.5 to 8 uM after 4 hrs by RTCA method; format: cell-based
[2] = species on record: Homo sapiens; assay: Binding affinity to internal ribosome entry site A RNA G-quadruplex region of VEGF-A protein in human MDA-MB-231 cells assessed as inhibition of VEGF-A protein induced cell migration at 0.5 to 8 uM after 10 hrs by RTCA method; format: cell-based
[3] = test system: MCF7; assay: Cytotoxicity against human MCF7 cells assessed as reduction in cell viability; format: cell-based
[4] = Binding affinity to 5'- FAM-labeled human 5'-UGAUGAGUGUGAGGAGGA-3' RNA G-quadruplex after 5 mins by MST analysis
[5] = species on record: Homo sapiens; assay: Binding affinity to 5'- FAM-labeled human 5'-UGAUGAGUGUGAGUAGUA-3' RNA at 100 uM after 5 mins by MST analysis
[6] = Binding affinity to C-kit 1 DNA G-quadruplex (unknown origin) at 1 uM after 24 hrs by spectrophotometric method
[7] = species on record: Homo sapiens; assay: Binding affinity to human 5'-UCGGGCCGGGAGGAGCCGCAGCCGGAA-3' […] at 1 uM after 24 hrs by spectrophotometric method
[8] = Binding affinity to ADAM10 RNA G-quadruplex (unknown origin) at 1 uM after 24 hrs by spectrophotometric method
[9] = Binding affinity to TERRA RNA G-quadruplex (unknown origin) at 1 uM after 24 hrs by spectrophotometric method
[10] = Binding affinity to NRAS-RNA G-quadruplex (unknown origin) at 1 uM after 24 hrs by spectrophotometric method
[11] = Binding affinity to BCL-2 RNA G-quadruplex (unknown origin) at 1 uM after 24 hrs by spectrophotometric method
[12] = species on record: Homo sapiens; assay: Binding affinity to wild type human internal ribosome entry site A RNA G-quadruplex at 1 uM after 24 hrs by spectrophotometric method
[13] = species on record: Homo sapiens; assay: Destabilization of human internal ribosome entry site A RNA G-quadruplex by CD spectral analysis
[14] = species on record: Homo sapiens; assay: Destabilization of human VEGF-A promoter DNA up to 5 uM by CD spectral analysis
[15] = species on record: Homo sapiens; assay: Destabilization of human wild type internal ribosome entry site A RNA G-quadruplex assessed as melting temperature at 5 uM by CD spectra method (reference value: 80.9 +/- 0.8 degreeC)
[16] = species on record: Homo sapiens; assay: Destabilization of human wild type 5'-FAM labeled internal ribosome entry site A RNA G-quadruplex at 2.5 to 10 uM measured after 3 hrs by electrophoresis mobility shift assay
[17] = species on record: Homo sapiens; assay: Destabilization of human 5'-FAM-labeled 5'-UGAUGAGUGUGAGUAGUA-3' RNA up to 10 uM measured after 3 hrs by electrophoresis mobility shift assay
[18] = Binding affinity to biotin-labeled human wild type internal ribosome entry site A RNA G-quadruplex by SPR analysis
[19] = Binding affinity to biotin-labeled DNA hairpin (unknown origin) by SPR analysis
[20] = Selectivity ratio of Kd for biotin-labeled hairpin DNA (unknown origin) to Kd for biotin-labeled human wild type internal ribosome entry site A RNA G-quadruplex
[21] = species on record: Homo sapiens; assay: Selectivity ratio of Kd for biotin labeled human 5'-UGAUGAGUGUGAGGAGGA-3' RNA G-quadruplex to Kd for biotin-labeled human wild type internal ribosome entry site A RNA G-quadruplex
[22] = species on record: Homo sapiens; assay: Inhibition of FLAG-labeled BG4 antibody binding to human wild type internal ribosome entry site A RNA G-quadruplex at 1.25 to 10 uM preincubated with RNA followed by antibody addition by pull-down assay
[23] = Inhibition of NT-647 dye-labeled BG4 binding to human wild type internal ribosome entry site A RNA G-quadruplex assessed as BG4 antibody Kd by MST analysis (reference value: 10.8 nM)
[24] = species on record: Homo sapiens; assay: Inhibition of BG4 protein binding to human wild type internal ribosome entry site A RNA G-quadruplex in MCF7 cells transfected with pcDNA3.1-BG4 plasmid at 2.5 to 5 uM after 24 hrs by RT-PCR analysis; format: cell-based
[25] = species on record: Homo sapiens; assay: Destabilization of human wild type internal ribosome entry site A RNA G-quadruplex expressed in MCF7 cells assessed as down regulation of VEGF-A translation at 1.5 uM after 24 hrs by dual-luciferase reporter gene assay relative to control; format: cell-based
[26] = species on record: Homo sapiens; assay: Destabilization of human 5'-UGAAGAGUGUGAGUAGUA-3' RNA expressed in MCF7 cells assessed as down regulation of VEGF-A translation at up to 1.5 uM after 24 hrs by dual-luciferase reporter gene assay; format: cell-based
[27] = species on record: Homo sapiens; assay: Destabilization of human 5'-UGAUGAGUGUGAGUAGUA-3' RNA expressed in MCF7 cells assessed as down regulation of VEGF-A translation at 0.1875 to 1.5 uM after 24 hrs by dual-luciferase reporter gene assay; format: cell-based
[28] = species on record: Homo sapiens; assay: Destabilization of human wild type internal ribosome entry site A RNA G-quadruplex expressed in human MCF7 cells assessed as decrease in VEGF-A protein expression at 1.5 uM after 48 hrs by ELISA relative to control; format: cell-based; design: scale not given: the % may be the effect or the level left
[29] = test system: Mus musculus; assay: Downregulation of VEGF-A expression in tumor of Balb/c mouse xenografted with human MCF7 cells at 7.5 mg/kg, ip qd for 20 days by immunohistochemical analysis; format: functional, organism-based
[30] = test system: MCF7; assay: Effect on human wild type internal ribosome entry site A RNA G-quadruplex transcription expressed in human MCF7 cells assessed as Met luciferase gene expression at 0.1875 to 1.5 uM after 20 hrs by RT-PCR analysis; format: functional, cell-based
[31] = test system: MCF7; assay: Effect on human VEGF-A transcription expressed in human MCF7 cells assessed as Met luciferase gene expression at 0.1875 to 3 uM by RT-PCR analysis; format: functional, cell-based
[32] = species on record: Homo sapiens; assay: Destabilization of wild type internal ribosome entry site A RNA G-quadruplex in CoCl2 treated human MCF7 cells assessed as decrease in VEGF-A protein expression at 0.1875 to 3 uM after 48 hrs by Western blot analysis
[33] = species on record: Homo sapiens; assay: Binding affinity to internal ribosome entry site A RNA G-quadruplex region of VEGF-A protein in human MDA-MB-231 cells assessed as VEGF-A protein induced cell migration at 3 uM after 24 hrs by MTT dye based Transwell assay relative to control
[34] = test system: MCF7; assay: Antitumor activity against human MCF7 cells xenografted in nude Balb/c mouse assessed as tumor volume at 7.5 mg/kg, ip qd for 20 days (Rvb >700 mm3); format: functional
[35] = test system: MCF7; assay: Antitumor activity against human MCF7 cells xenografted in nude Balb/c mouse assessed as reduction in tumor weight at 7.5 mg/kg, ip qd for 20 days relative to control; format: functional; design: scale not given: the % may be the effect or the level left
[36] = test system: Mus musculus; assay: Toxicity in nude Balb/c mouse xenografted with human MCF7 cells assessed as change in body weight at 7.5 mg/kg, ip qd for 20 days; format: organism-based; conditions: in vivo, 480 h
[37] = test system: MCF7; assay: Effect on BG4 protein expression in human MCF7 cells up to 1.5 uM by Western blot method; format: ADME, cell-based

Structure (SMILES): CCN(CC)CCOc1ccc(Nc2nc(-c3ccccc3NC(=O)CCN3CCN(C)CC3)nc3ccccc23)cc1
- Activity [1]: Active
- Activity [2]: inactive
- IC50 [3]: 12.5 µM
- Kd [4]: 13.4 to 20.5 µM
- Activity [5]: inactive
- Activity [6]: inactive
- Activity [7]: inactive
- Activity [8]: inactive
- Activity [9]: inactive
- Activity [10]: inactive
- Activity [11]: inactive
- Activity [12]: Active
- Activity [13]: Dose-dependent effect
- Activity [14]: Active
- Tm [15]: 62.2 °C
- Activity [16]: Active
- Activity [17]: inactive
- Kd [18]: 0.928 µM
- Kd [19]: 21.2 µM
- Selectivity ratio [20]: 23
- Selectivity ratio [21]: 4
- inhibition [22]: Active
- Kd [23]: 4.64 µM
- inhibition [24]: Active
- Activity [25]: 80%
- Activity [26]: inactive
- Activity [27]: inactive
- Activity [28]: 75%
- Activity [29]: Active
- Activity [30]: inactive
- Activity [31]: inactive
- Activity [32]: Dose-dependent effect
- Activity [33]: 25%
- Activity [34]: <300 mm3
- Activity [35]: 60.1%
- Activity [36]: Non-Toxic
- Activity [37]: Non-Toxic
